Experimental data as given in patent US9089572B2, “Inhibitors of p97” (California Institute of Technology, priority 2008, dated 2015).

Key:
[1] = target: Hamster NSF (Cricetulus griseus, UniProt P18708); assay: In vitro ATP hydrolysis, NSF; assay type: biochemical
Protocol: (§1) To determine whether cysteine 522 is necessary for inhibition of p97 by compound 2, a mutant of p97 was constructed in which cysteine 522 was converted to either alanine (C522A-mp97) or threonine (C522T-mp97). The IC50 values of compound 2 were measured the against various enzymes during a 20-minute preincubation (see Table 2). Mutation of cysteine 522 in p97 to either alanine or threonine decreased sensitivity to compound 2 by greater than 100-fold. On the other hand, yeast Cdc48, which normally is quite resistant to compound 2, became nearly 30-fold more sensitive to the compound upon introduction of a cysteine in place of threonine 532.
To further address the specificity of inhibition by compound 2, its activity against two other AAA ATPases, NSF and the 26S proteasome, was assayed. Although NSF is known to be sensitive to thiol-reactive agents, it was more than 100-fold less sensitive to compound 2 than p97 (Table 2). […] The results with NSF and the 26S proteasome are noteworthy because both the active D1 domain of NSF and the Rpt3 subunit of the 26S proteasome have a cysteine in the position analogous to cysteine 522 of p97 (FIG. 3).

[2] = tested on: MCF7; assay: MTT cell growth assay, MCF7; assay type: cell-based; details: Homo sapiens, 48 or 72 h, read-out: Cell line inhibition of growth GI50 MCF7
Protocol: (§2) To probe further the effect of compound 2 and related compounds 1, 3, 5, 6 and 7, various concentrations of these compounds were added to 13 different cell lines and incubated for 48 or 72 h. An MTT assay was then performed to evaluate cell growth and survival.

[3] = tested on: RPMI8226; assay: MTT cell growth assay, RPMI8226; assay type: cell-based; details: Homo sapiens, RPMI-8226, 48 or 72 h, read-out: Cell line inhibition of growth GI50 RPMI8226
Protocol: as §2

[4] = tested on: CCRF-CEM; assay: MTT cell growth assay, CCRF-CEM; assay type: cell-based; details: Homo sapiens, 48 or 72 h, read-out: Cell line inhibition of growth GI50 CCRF-CEM
Protocol: as §2

[5] = tested on: MRC5-WT; assay: CellTiter-Glo growth inhibition, parental MRC5 cells; assay type: cell-based; details: Homo sapiens, 48 h at 37° C., read-out: Cell line inhibition of growth GI50 MRC5-WT
[6] = tested on: HeLa; assay: MTT cell growth assay, HeLa; assay type: cell-based; details: Homo sapiens, 48 or 72 h, read-out: Cell line inhibition of growth GI50 HeLa
Protocol: as §2

[7] = target: T532C-Cdc48 (Saccharomyces cerevisiae, UniProt P25694, T532C); assay: In vitro ATP hydrolysis (malachite green ATPase assay), T532C-Cdc48; assay type: biochemical, yeast
Sequence of T532C-Cdc48 (P25694 whole entry T532C): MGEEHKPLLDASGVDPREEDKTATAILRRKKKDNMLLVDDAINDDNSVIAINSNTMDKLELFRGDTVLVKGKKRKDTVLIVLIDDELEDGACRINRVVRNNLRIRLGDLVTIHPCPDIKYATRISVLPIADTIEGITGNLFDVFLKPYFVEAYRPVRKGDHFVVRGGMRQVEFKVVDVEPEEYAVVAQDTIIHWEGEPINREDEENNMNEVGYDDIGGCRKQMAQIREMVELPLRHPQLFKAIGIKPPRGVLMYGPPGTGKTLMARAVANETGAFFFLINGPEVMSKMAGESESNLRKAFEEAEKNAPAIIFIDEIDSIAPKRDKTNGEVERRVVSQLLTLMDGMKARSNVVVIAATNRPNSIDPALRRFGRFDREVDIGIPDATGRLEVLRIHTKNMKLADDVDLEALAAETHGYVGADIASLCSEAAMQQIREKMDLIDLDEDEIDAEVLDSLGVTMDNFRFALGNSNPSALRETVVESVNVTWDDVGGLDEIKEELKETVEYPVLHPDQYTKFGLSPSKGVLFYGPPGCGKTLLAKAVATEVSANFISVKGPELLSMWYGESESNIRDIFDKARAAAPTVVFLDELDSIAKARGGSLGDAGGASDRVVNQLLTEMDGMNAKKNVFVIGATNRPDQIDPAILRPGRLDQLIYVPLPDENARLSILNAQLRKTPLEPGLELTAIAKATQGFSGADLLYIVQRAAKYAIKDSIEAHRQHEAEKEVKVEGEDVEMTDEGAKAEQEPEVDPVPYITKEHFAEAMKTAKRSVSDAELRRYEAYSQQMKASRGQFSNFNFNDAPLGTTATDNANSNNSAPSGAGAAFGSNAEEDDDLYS
Protocol: Compounds were tested for their ability to inhibit the ATPase activity of purified wild type murine p97 and T532C-Cdc48, a mutant of yeast Cdc48 in which the residue analogous to cysteine 522, threonine 532, was converted to cysteine.
as §1

[8] = tested on: HeLa cell line that stably expresses UbG76V-GFP; assay: Accumulation of UbG76V-GFP in HeLa cells (fluorescence microscopy); assay type: cell-based
Protocol: As a control, the same cells were treated with the proteasome inhibitor MG132. In the latter set of experiments, a HeLa cell line that stably expresses UbG76V-GFP was transfected with either wild type (WT), D1 mutant (E305Q), D2 mutant (E578Q) or E305Q, E578Q double mutant (QQ) murine 97-pcDNA4.1 plasmid (0.05 μg/100 μL) in a 96-well plate. After 23 h, the intensity of UbG76V-GFP signal was measured on a Molecular Devices ImageXpress automated fluorescence microscope. […] The direct accumulation of Ub-G76V-GFP caused by compound 2 at 25 μM is 4-fold less than that caused by MG132 at 2 μM. This is likely due to the fact that only fully folded Ub-G76V-GFP should require p97 for degradation by the proteasome.
As a second test of whether compound 8 can inhibit p97 in vivo, it was evaluated whether it can cause accumulation of the UbG76V-GFP reporter. A HeLa cell line that stably expresses UbG76V-GFP was treated with compound 8 for 1 h at 37° C., and was then evaluated by fluorescence microscopy. As a control, the same cells were treated with the proteasome inhibitor MG132. […] The level of GFP fluorescence was quantified in cells treated with compound 8 at different doses and for different periods of time (FIG. 28).

[9] = tested on: Ub-G76V-GFP/HeLa cells; assay: Degradation of pre-accumulated Ub-G76V-GFP (cycloheximide chase after MG132 washout); assay type: cell-based; details: for % K: relative to 0 μM
Protocol: To evaluate this possibility, an assay was developed to determine the rate of degradation of pre-accumulated Ub-G76V-GFP molecules. […] Cells were then washed with PBS three times remove the MG132. Cells were then refreshed by adding DMEM containing cycloheximide (50 μg/mL; to block production of more Ub-G76V-GFP) and test compounds (0˜10 μM) were added into cells. Eight 96-well plates were prepared and one of the plates was imaged at 25, 50, 70, 100, 110, 125, 145, or 170 min after washing with PBS three times. After washing out MG132, degradation of pre-accumulated Ub-G76V-GFP appears to follow pseudo-first order reaction. Rate constant (K; 1/min) can be determined from the slope of plotting Ln (Fold Accumulation) versus Time (min) (see FIG. 17 and FIG. 18).
Ub-G76V-GFP/HeLa cells were treated with MG132 (2 μM) for 1 h and washed with PBS three times. DMEM containing cycloheximide (50 μg/mL) and compound 8 (0-10 μM) was added into cells. Eight 96-well plates were prepared and one of the plates was imaged at 25, 50, 70, 100, 110, 125, 145, or 170 min after washing with PBS three times.

Sequence of Hamster NSF (P18708 whole entry): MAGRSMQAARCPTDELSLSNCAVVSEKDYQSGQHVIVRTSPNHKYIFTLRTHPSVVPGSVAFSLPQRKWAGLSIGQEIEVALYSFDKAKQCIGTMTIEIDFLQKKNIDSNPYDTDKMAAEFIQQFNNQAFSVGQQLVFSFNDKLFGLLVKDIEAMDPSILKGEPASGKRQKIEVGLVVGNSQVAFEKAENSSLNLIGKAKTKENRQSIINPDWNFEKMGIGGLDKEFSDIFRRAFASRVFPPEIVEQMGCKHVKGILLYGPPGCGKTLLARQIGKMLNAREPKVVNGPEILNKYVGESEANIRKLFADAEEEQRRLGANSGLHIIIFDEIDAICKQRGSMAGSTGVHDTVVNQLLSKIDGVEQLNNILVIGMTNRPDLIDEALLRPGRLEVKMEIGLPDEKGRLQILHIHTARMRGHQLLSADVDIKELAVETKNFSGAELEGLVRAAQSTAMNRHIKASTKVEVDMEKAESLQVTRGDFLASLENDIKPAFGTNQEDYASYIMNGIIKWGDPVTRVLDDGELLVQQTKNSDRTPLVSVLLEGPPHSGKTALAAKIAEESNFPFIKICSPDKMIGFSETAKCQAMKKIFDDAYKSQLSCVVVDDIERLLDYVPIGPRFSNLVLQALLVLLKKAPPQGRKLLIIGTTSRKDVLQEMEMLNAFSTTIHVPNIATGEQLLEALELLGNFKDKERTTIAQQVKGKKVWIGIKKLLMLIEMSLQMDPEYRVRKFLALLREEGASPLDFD

With `C=CC(=O)Nc1ncnc2c1c(-c1ccccc1)nn2C(C)(C)C` [Compound 2] the IC50 ([1]; 20-minute preincubation) was 105000 ± 31000 nM, the “NSF less sensitive than p97” value ([1]; NSF vs p97) was “more than 100 fold” and the GI50 [2] was 500 ± 100 nM. For the same molecule, the GI50 [3] was 400 ± 100 nM, the GI50 [4] was 1600 ± 800 nM and the GI50 [5] was 17000 ± 10000 nM. The GI50 [6] was 400 ± 300 nM, the IC50 [7] was 14000 ± 5000 nM and the “increase in sensitivity of yeast Cdc48 on introduction of cysteine in place of threonine 532” value ([7]; T532C-Cdc48 vs yeast Cdc48) was ~30 fold. The “accumulation of UbG76V-GFP” value ([8]; 4 hours at 37° C., fluorescence microscopy) was “caused accumulation of UbG76V-GFP”, the “direct accumulation of Ub-G76V-GFP, less than that caused by MG132 at 2 μM” value ([8]; compound at 25 μM vs MG132 at 2 μM) was 4 fold and the “K, rate constant of Ub-G76V-GFP degradation” value (“K, rate constant” below) ([9]; 0.01 μM) was 0.0318 min⁻¹. For the same molecule, the “% K” value ([9]; 0.01 μM) was 83%, the “K, rate constant” value ([9]; 0.04 μM) was 0.0306 min⁻¹ and the “% K” value ([9]; 0.04 μM) was 80%. The “K, rate constant” value ([9]; 0.16 μM) was 0.0292 min⁻¹, the “% K” value ([9]; 0.16 μM) was 76% and the “K, rate constant” value ([9]; 0.63 μM) was 0.0237 min⁻¹. The “% K” value ([9]; 0.63 μM) was 62%, the “K, rate constant” value ([9]; 2.5 μM) was 0.0189 min⁻¹ and the “% K” value ([9]; 2.5 μM) was 49%. The “K, rate constant” value ([9]; 10 μM) was 0.0015 min⁻¹, the “% K” value ([9]; 10 μM) was 4% and the IC50 ([9]; Homo sapiens, HeLa, 1 h, read-out: IC50 on the decay of Ub-G76V-GFP) was 1250 ± 470 nM.
